EC50 and MIC data for 10 molecules are collected here from patent US20240270762A1, “PENICILLIN-BINDING PROTEIN INHIBITORS” (priority 2021, published 2024).

One experiment has as its target T1, A. baumannii PBP1a (Acinetobacter baumannii, UniProt A0ABX6CK30).
T1 sequence (A0ABX6CK30 1-851): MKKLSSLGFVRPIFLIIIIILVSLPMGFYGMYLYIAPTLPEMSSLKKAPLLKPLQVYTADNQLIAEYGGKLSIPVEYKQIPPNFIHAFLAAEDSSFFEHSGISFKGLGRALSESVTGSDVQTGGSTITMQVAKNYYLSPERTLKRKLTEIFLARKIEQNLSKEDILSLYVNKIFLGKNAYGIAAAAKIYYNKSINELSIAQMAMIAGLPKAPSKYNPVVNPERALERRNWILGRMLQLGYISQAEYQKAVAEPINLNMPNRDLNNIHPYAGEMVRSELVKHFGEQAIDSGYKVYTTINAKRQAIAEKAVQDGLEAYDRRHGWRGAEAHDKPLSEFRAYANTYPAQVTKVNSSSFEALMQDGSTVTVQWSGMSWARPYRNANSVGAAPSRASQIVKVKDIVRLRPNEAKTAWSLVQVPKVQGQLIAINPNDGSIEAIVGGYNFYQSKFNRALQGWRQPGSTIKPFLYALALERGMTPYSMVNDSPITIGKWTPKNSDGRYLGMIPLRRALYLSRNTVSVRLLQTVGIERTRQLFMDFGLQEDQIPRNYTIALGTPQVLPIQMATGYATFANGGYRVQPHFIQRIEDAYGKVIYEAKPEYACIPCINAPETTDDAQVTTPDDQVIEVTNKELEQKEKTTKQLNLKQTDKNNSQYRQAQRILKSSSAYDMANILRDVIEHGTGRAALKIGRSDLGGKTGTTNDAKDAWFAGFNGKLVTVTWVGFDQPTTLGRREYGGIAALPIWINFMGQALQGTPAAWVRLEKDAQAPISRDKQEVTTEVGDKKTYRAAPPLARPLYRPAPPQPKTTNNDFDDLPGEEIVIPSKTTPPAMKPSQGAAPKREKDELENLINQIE
Put plainly: Bocillin-FL competition binding via gel filtration, A. baumannii PBP1a. The following applies: competition binding assay using Bocillin-FL via gel filtration; read-out: A. baumannii PBP1a Potency. In a few lines: (§1)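 Competitive equilibrium binding; reporter Bocillin-FL. PBP + inhibitor (titration) pre-incubated → Bocillin-FL, 15 min → gel filtration → fluorescence. EC50 from Hill fit of fraction bound vs [inhibitor].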

The subject of the next experiment is A. baumannii ATCC 19606. The experiment can be described thus: microbe, parasite or virus in culture. The following applies: Acinetobacter baumannii, ATCC19606, read-out: MIC, A. baumannii ATCC 19606. The format is cell-based.
Experiment [1] concerns the target T2, PBP3 from Escherichia coli (K-12) (Escherichia coli, UniProt P0AD68).
T2 construct: made in house
Put plainly: Bocillin-FL fluorescence polarization competition binding, E. coli PBP3. In a few lines: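 Purified PBP was preincubated with inhibitor (E. coli PBP3 1.5 μM, 30 min; P. aeruginosa PBP3 0.75 μM, A. baumannii PBP3 0.2 μM and PBP1a 1 μM, 15 min), then Bocillin-FL (0.1 μM; 0.05 μM for PBP1a) added and FP read up to 60 min. EC50 = 50% loss of bound probe.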

A further experiment deals with A. baumannii PBP2 (Acinetobacter baumannii, UniProt D0C8Z9). The experiment can be described thus: Bocillin-FL competition binding via gel filtration, A. baumannii PBP2. The essentials: as §1
The subject of another experiment is A. baumannii CDC-0033. Put plainly: microbe, parasite or virus in culture. Format: cell-based. The following applies: Acinetobacter baumannii, CDC0033, read-out: MIC, A. baumannii CDC-0033.
The test system of the next experiment is P. aeruginosa CDC-0095. The experiment can be described thus: microbe, parasite or virus in culture. The format is cell-based. The following applies: Pseudomonas aeruginosa, CDC0095, read-out: Minimum inhibitory concentration, P. aeruginosa CDC-0095.

SMILES strings stand for the structures. Values after ≈ are worked out from the molar mass of the structure shown.

T2 sequence (P0AD68 1-577): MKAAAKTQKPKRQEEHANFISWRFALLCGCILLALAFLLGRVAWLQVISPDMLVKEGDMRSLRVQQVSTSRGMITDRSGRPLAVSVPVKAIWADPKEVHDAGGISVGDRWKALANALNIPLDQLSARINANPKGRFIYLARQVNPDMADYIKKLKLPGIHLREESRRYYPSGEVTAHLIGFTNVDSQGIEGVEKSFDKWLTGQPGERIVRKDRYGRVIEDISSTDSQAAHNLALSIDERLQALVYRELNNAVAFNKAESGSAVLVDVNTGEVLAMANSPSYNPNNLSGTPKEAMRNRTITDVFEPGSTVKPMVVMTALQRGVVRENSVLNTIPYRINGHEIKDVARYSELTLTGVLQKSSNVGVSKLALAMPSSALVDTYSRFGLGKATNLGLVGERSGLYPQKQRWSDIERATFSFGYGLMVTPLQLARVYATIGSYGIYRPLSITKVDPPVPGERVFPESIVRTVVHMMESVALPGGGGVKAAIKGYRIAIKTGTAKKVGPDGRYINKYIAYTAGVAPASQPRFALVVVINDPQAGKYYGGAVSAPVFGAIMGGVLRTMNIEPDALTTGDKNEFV
A. baumannii PBP2, sequence (D0C8Z9 whole entry): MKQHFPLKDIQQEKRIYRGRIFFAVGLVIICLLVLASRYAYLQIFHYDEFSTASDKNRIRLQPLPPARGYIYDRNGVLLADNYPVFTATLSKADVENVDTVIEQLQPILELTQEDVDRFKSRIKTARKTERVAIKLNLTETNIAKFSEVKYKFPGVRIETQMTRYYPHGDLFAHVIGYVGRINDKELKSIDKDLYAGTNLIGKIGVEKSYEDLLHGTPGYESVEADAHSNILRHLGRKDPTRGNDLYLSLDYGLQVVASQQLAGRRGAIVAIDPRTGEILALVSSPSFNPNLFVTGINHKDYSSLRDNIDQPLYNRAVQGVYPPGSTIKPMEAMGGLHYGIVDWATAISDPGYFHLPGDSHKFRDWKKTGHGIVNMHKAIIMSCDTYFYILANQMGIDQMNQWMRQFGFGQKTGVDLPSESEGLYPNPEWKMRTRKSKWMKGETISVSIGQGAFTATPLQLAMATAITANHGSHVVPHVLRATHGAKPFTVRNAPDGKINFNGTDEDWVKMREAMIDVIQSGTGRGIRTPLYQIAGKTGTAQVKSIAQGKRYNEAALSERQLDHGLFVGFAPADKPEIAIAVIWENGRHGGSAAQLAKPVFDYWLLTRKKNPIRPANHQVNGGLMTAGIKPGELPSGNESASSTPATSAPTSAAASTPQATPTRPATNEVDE

Consider `O=C(NCCCN1CCN(C(=O)NC(C(=O)N[C@H]2Cc3ccc(F)c(C(=O)O)c3OB2O)c2cc(F)c(O)c(O)c2Cl)C(=O)C1=O)c1c(F)ccc(O)c1Cl` (stereo partly drawn) [Example 414, (3R)-3-(2-(2-chloro-5-fluoro-3,4-dihydroxyphenyl)-2-(4-(3-(2-chloro-6-fluoro-3-hydroxybenzamido)propyl)-2,3-dioxopiperazine-1-carboxamido)acetamido)-7-fluoro-2-hydroxy-3,4-dihydro-2H-benzo[e][1,2]oxaborinine-8-carboxylic acid], for which the EC50 (on A. baumannii PBP1a; in experiment [1]; on A. baumannii PBP2) was < 10 µM in each case. The figures for the MIC in the experiment with A. baumannii ATCC 19606, with A. baumannii CDC-0033 and in the experiment with P. aeruginosa CDC-0095 were < 1 µg/mL, 2 to 4 µg/mL (≈ 2.46 to 4.92 µM) and < 1 µg/mL, respectively.
On to `O=C(NCCCN1CCN(C(=O)NC(C(=O)N[C@H]2Cc3ccc(F)c(C(=O)O)c3OB2O)c2cc(F)c(O)c(O)c2Cl)C(=O)C1=O)c1cc(O)c(F)c(O)c1F` (stereo partly drawn) [Example 415, (3R)-3-(2-(2-chloro-5-fluoro-3,4-dihydroxyphenyl)-2-(4-(3-(2,4-difluoro-3,5-dihydroxybenzamido)propyl)-2,3-dioxopiperazine-1-carboxamido)acetamido)-7-fluoro-2-hydroxy-3,4-dihydro-2H-benzo[e][1,2]oxaborinine-8-carboxylic acid], for which the EC50 is < 10 µM on A. baumannii PBP1a, 10 to 50 µM in experiment [1] and 10 to 50 µM at A. baumannii PBP2. The MIC is < 1 µg/mL in the experiment with A. baumannii ATCC 19606, 2 to 4 µg/mL (≈ 2.46 to 4.93 µM) in the experiment on A. baumannii CDC-0033 and < 1 µg/mL in the experiment on P. aeruginosa CDC-0095.
Consider `O=C(NCCCN1CCN(C(=O)NC(C(=O)N[C@H]2Cc3ccc(F)c(C(=O)O)c3OB2O)c2cc(F)c(O)c(O)c2Cl)C(=O)C1=O)c1cc(O)c(F)c(O)c1` (stereo partly drawn) [Example 416, (3R)-3-(2-(2-chloro-5-fluoro-3,4-dihydroxyphenyl)-2-(4-(3-(4-fluoro-3,5-dihydroxybenzamido)propyl)-2,3-dioxopiperazine-1-carboxamido)acetamido)-7-fluoro-2-hydroxy-3,4-dihydro-2H-benzo[e][1,2]oxaborinine-8-carboxylic acid], for which the EC50 (at A. baumannii PBP1a; in experiment [1]; on A. baumannii PBP2) was < 10 µM each time. For the same molecule, the MIC in the experiment with A. baumannii ATCC 19606 was < 1 µg/mL; in the experiment on A. baumannii CDC-0033, 2 to 4 µg/mL (≈ 2.52 to 5.04 µM); in the experiment with P. aeruginosa CDC-0095, < 1 µg/mL.
Turning to `O=C(NCCCN1CCN(C(=O)NC(C(=O)N[C@H]2Cc3ccc(F)c(C(=O)O)c3OB2O)c2cc(F)c(O)c(O)c2Cl)C(=O)C1=O)c1ccc(O)c(F)c1Cl` (stereo partly drawn) [Example 418, (3R)-3-(2-(4-(3-(2-chloro-3-fluoro-4-hydroxybenzamido)propyl)-2,3-dioxopiperazine-1-carboxamido)-2-(2-chloro-5-fluoro-3,4-dihydroxyphenyl)acetamido)-7-fluoro-2-hydroxy-3,4-dihydro-2H-benzo[e][1,2]oxaborinine-8-carboxylic acid], the EC50 (at A. baumannii PBP1a; in experiment [1]; on A. baumannii PBP2) was < 10 µM each time. Besides, the MIC in the experiment on A. baumannii ATCC 19606 is < 1 µg/mL; with A. baumannii CDC-0033, < 1 µg/mL; with P. aeruginosa CDC-0095 it was 2 to 4 µg/mL (≈ 2.46 to 4.92 µM).
Regarding `O=C(NCCCN1CCN(C(=O)NC(C(=O)N[C@H]2Cc3ccc(F)c(C(=O)O)c3OB2O)c2cc(F)c(O)c(O)c2Cl)C(=O)C1=O)c1ccc(O)c(Cl)c1F` (stereo partly drawn) [Example 419, (3R)-3-(2-(4-(3-(3-chloro-2-fluoro-4-hydroxybenzamido)propyl)-2,3-dioxopiperazine-1-carboxamido)-2-(2-chloro-5-fluoro-3,4-dihydroxyphenyl)acetamido)-7-fluoro-2-hydroxy-3,4-dihydro-2H-benzo[e][1,2]oxaborinine-8-carboxylic acid], the EC50 (on A. baumannii PBP1a; in experiment [1]; at A. baumannii PBP2) was < 10 µM each time. Also, the figures for the MIC in the experiment with A. baumannii ATCC 19606, with A. baumannii CDC-0033 and in the experiment on P. aeruginosa CDC-0095 were < 1 µg/mL, 8 to 16 µg/mL (≈ 9.85 to 19.7 µM) and 2 to 4 µg/mL (≈ 2.46 to 4.92 µM), respectively.
Take `O=C(NCCCN1CCN(C(=O)NC(C(=O)N[C@H]2Cc3ccc(F)c(C(=O)O)c3OB2O)c2cc(F)c(O)c(O)c2Cl)C(=O)C1=O)c1c(F)cc(O)cc1Cl` (stereo partly drawn) [Example 421, (3R)-3-(2-(2-chloro-5-fluoro-3,4-dihydroxyphenyl)-2-(4-(3-(2-chloro-6-fluoro-4-hydroxybenzamido)propyl)-2,3-dioxopiperazine-1-carboxamido)acetamido)-7-fluoro-2-hydroxy-3,4-dihydro-2H-benzo[e][1,2]oxaborinine-8-carboxylic acid]: the EC50 (at A. baumannii PBP1a; in experiment [1]; on A. baumannii PBP2) was < 10 µM in each case. Moreover, the MIC in the experiment with A. baumannii ATCC 19606 was < 1 µg/mL; in the experiment on A. baumannii CDC-0033 it was 2 to 4 µg/mL (≈ 2.46 to 4.92 µM); in the experiment on P. aeruginosa CDC-0095, 2 to 4 µg/mL (≈ 2.46 to 4.92 µM).
Take `O=C(NCCCN1CCN(C(=O)N[C@@H](C(=O)N[C@H]2Cc3ccc(F)c(C(=O)O)c3OB2O)c2cc(F)c(O)c(O)c2Cl)C(=O)C1=O)c1cc(F)c(O)c(F)c1` [Example 422, (R)-3-((R)-2-(2-chloro-5-fluoro-3,4-dihydroxyphenyl)-2-(4-(3-(3,5-difluoro-4-hydroxybenzamido)propyl)-2,3-dioxopiperazine-1-carboxamido)acetamido)-7-fluoro-2-hydroxy-3,4-dihydro-2H-benzo[e][1,2]oxaborinine-8-carboxylic acid]: the EC50 (at A. baumannii PBP1a; in experiment [1]; on A. baumannii PBP2) was < 10 µM in each case. In addition, the results for the MIC in the experiment with A. baumannii ATCC 19606, with A. baumannii CDC-0033 and in the experiment on P. aeruginosa CDC-0095 were < 1 µg/mL, 2 to 4 µg/mL (≈ 2.51 to 5.03 µM) and < 1 µg/mL, respectively.
On to `O=C(NCCCN1CCN(C(=O)NC(C(=O)N[C@H]2Cc3ccc(F)c(C(=O)O)c3OB2O)c2cc(F)c(O)c(O)c2Cl)C(=O)C1=O)c1cc(O)cc(O)c1` (stereo partly drawn) [Example 423, (3R)-3-(2-(2-chloro-5-fluoro-3,4-dihydroxyphenyl)-2-(4-(3-(3,5-dihydroxybenzamido)propyl)-2,3-dioxopiperazine-1-carboxamido)acetamido)-7-fluoro-2-hydroxy-3,4-dihydro-2H-benzo[e][1,2]oxaborinine-8-carboxylic acid], for which the EC50 (at A. baumannii PBP1a; in experiment [1]; at A. baumannii PBP2) was < 10 µM in each case. The MIC in the experiment with A. baumannii ATCC 19606 was < 1 µg/mL; in the experiment on A. baumannii CDC-0033 it was 2 to 4 µg/mL (≈ 2.58 to 5.16 µM); in the experiment on P. aeruginosa CDC-0095, < 1 µg/mL.
As to `O=C(O)c1c(F)ccc2c1OB(O)[C@@H](NC(=O)C(NC(=O)N1CCN(C3CCN(C(=O)Nc4cccc(O)c4)CC3)C(=O)C1=O)c1cc(F)c(O)c(O)c1Cl)C2` (stereo partly drawn) [Example 424, (3R)-3-(2-(2-chloro-5-fluoro-3,4-dihydroxyphenyl)-2-(4-(1-((3-hydroxyphenyl)carbamoyl)piperidin-4-yl)-2,3-dioxopiperazine-1-carboxamido)acetamido)-7-fluoro-2-hydroxy-3,4-dihydro-2H-benzo[e][1,2]oxaborinine-8-carboxylic acid], the EC50 (on A. baumannii PBP1a; in experiment [1]; on A. baumannii PBP2) was < 10 µM in each case. Moreover, the MIC with A. baumannii ATCC 19606, with A. baumannii CDC-0033 and in the experiment with P. aeruginosa CDC-0095 was < 1 µg/mL each time.
Regarding `O=C(O)c1c(F)ccc2c1OB(O)[C@@H](NC(=O)C(NC(=O)N1CCN(C3CCN(C(=O)c4cncc(O)c4)CC3)C(=O)C1=O)c1cc(F)c(O)c(O)c1Cl)C2` (stereo partly drawn) [Example 425, (3R)-3-(2-(2-chloro-5-fluoro-3,4-dihydroxyphenyl)-2-(4-(1-(5-hydroxynicotinoyl)piperidin-4-yl)-2,3-dioxopiperazine-1-carboxamido)acetamido)-7-fluoro-2-hydroxy-3,4-dihydro-2H-benzo[e][1,2]oxaborinine-8-carboxylic acid], the EC50 on A. baumannii PBP1a was 10 to 50 µM; in experiment [1], < 10 µM; at A. baumannii PBP2, 10 to 50 µM. Moreover, the results for the MIC with A. baumannii ATCC 19606, in the experiment with A. baumannii CDC-0033 and with P. aeruginosa CDC-0095 were < 1 µg/mL, < 1 µg/mL and 2 to 4 µg/mL (≈ 2.54 to 5.08 µM), respectively.
